{"source": "patent US10912848B2", "about": "“Dual-purpose PAT/ultrasound contrast agent bound with nanoparticles containing drug and method for preparing same” (IMGT CO, LTD., priority 2014, dated 2021)", "origin": "cited, not measured here", "conditions": "25° C.", "note": "Read-outs that look alike come from different tables or passages of the source."}
{"smiles": "CC(=O)Oc1ccccc1C(=O)O", "note": "[aspirin]", "values": [{"measurement": "volume of solvent required to dissolve 1 g of drug", "setting": "H2O", "value": 300, "unit": "mL"}, {"measurement": "volume of solvent required to dissolve 1 g of drug", "setting": "ethanol", "value": 5, "unit": "mL"}]}
